Assay results as given in ChEMBL document CHEMBL2346657, “Synthesis of novel 2-amino-4-(5'-substituted 2'-phenyl-1H-indol-3'-yl)-6-aryl-4H-pyran-3-carbonitrile derivatives as antimicrobial and antioxidant agents” (2013).
Active and inactive are the calls of the source. Unless noted, the rule behind the calls is not given here.

Experiments:
Type in all cases: functional
Aspergillus niger [1] = assay: Antimicrobial activity against Aspergillus niger MTCC 281 at 1000 ug/ml after 72 hrs by cup plate method; conditions: MTCC 281, 72 h, read-out: IZ
Escherichia coli [2] = assay: Antimicrobial activity against Escherichia coli MTCC 723 at 500 ug/ml after 24 hrs by cup plate method; conditions: MTCC 723, 24 h, read-out: IZ
Aspergillus flavus [3] = assay: Antimicrobial activity against Aspergillus flavus MTCC 1973 at 1000 ug/ml after 72 hrs by cup plate method; conditions: MTCC 1973, 72 h, read-out: IZ
Aspergillus flavus [4] = assay: Antimicrobial activity against Aspergillus flavus MTCC 1973 at 750 ug/ml after 72 hrs by cup plate method; conditions: MTCC 1973, 72 h, read-out: IZ
Staphylococcus aureus [5] = assay: Antimicrobial activity against Staphylococcus aureus ATCC 29513 at 500 ug/ml after 24 hrs by cup plate method; conditions: ATCC 29513, 24 h, read-out: IZ
[6] = tested on: Radical scavenging activity; assay: Antioxidant activity assessed as DPPH radical scavenging activity at 100 ug/ml
Aspergillus oryzae [7] = assay: Antimicrobial activity against Aspergillus oryzae MTCC 3567 at 750 ug/ml after 72 hrs by cup plate method; conditions: MTCC 3567, 72 h, read-out: IZ
[8] = Antioxidant activity assessed as metal chelating activity by measuring inhibition of ferrozine-Fe2+ complex formation at 25 to 100 ug/ml
Aspergillus niger [9] = assay: Antimicrobial activity against Aspergillus niger MTCC 281 at 750 ug/ml after 72 hrs by cup plate method; conditions: MTCC 281, 72 h, read-out: IZ
Aspergillus oryzae [10] = assay: Antimicrobial activity against Aspergillus oryzae MTCC 3567 at 500 ug/ml after 72 hrs by cup plate method; conditions: MTCC 3567, 72 h, read-out: IZ
Aspergillus niger [11] = assay: Antimicrobial activity against Aspergillus niger MTCC 281 at 500 ug/ml after 72 hrs by cup plate method; conditions: MTCC 281, 72 h, read-out: IZ
Staphylococcus aureus [12] = assay: Antimicrobial activity against Staphylococcus aureus ATCC 29513 at 1000 ug/ml after 24 hrs by cup plate method; conditions: ATCC 29513, 24 h, read-out: IZ
Escherichia coli [13] = assay: Antimicrobial activity against Escherichia coli MTCC 723 at 750 ug/ml after 24 hrs by cup plate method; conditions: MTCC 723, 24 h, read-out: IZ
Escherichia coli [14] = assay: Antimicrobial activity against Escherichia coli MTCC 723 at 1000 ug/ml after 24 hrs by cup plate method; conditions: MTCC 723, 24 h, read-out: IZ
Aspergillus terreus [15] = assay: Antimicrobial activity against Aspergillus terreus MTCC 1782 at 750 ug/ml after 72 hrs by cup plate method; conditions: MTCC 1782, 72 h, read-out: IZ
Aspergillus terreus [16] = assay: Antimicrobial activity against Aspergillus terreus MTCC 1782 at 1000 ug/ml after 72 hrs by cup plate method; conditions: MTCC 1782, 72 h, read-out: IZ
Klebsiella pneumoniae [17] = assay: Antimicrobial activity against Klebsiella pneumoniae NCTC 13368 at 1000 ug/ml after 24 hrs by cup plate method; conditions: NCTC 13368, 24 h, read-out: IZ
Klebsiella pneumoniae [18] = assay: Antimicrobial activity against Klebsiella pneumoniae NCTC 13368 at 750 ug/ml after 24 hrs by cup plate method; conditions: NCTC 13368, 24 h, read-out: IZ
Klebsiella pneumoniae [19] = assay: Antimicrobial activity against Klebsiella pneumoniae NCTC 13368 at 500 ug/ml after 24 hrs by cup plate method; conditions: NCTC 13368, 24 h, read-out: IZ
Pseudomonas aeruginosa [20] = assay: Antimicrobial activity against Pseudomonas aeruginosa MTCC 1688 at 500 ug/ml after 24 hrs by cup plate method; conditions: MTCC 1688, 24 h, read-out: IZ
Staphylococcus aureus [21] = assay: Antimicrobial activity against Staphylococcus aureus ATCC 29513 at 750 ug/ml after 24 hrs by cup plate method; conditions: ATCC 29513, 24 h, read-out: IZ
Aspergillus flavus [22] = assay: Antimicrobial activity against Aspergillus flavus MTCC 1973 at 500 ug/ml after 72 hrs by cup plate method; conditions: MTCC 1973, 72 h, read-out: IZ
Aspergillus terreus [23] = assay: Antimicrobial activity against Aspergillus terreus MTCC 1782 at 500 ug/ml after 72 hrs by cup plate method; conditions: MTCC 1782, 72 h, read-out: IZ
Pseudomonas aeruginosa [24] = assay: Antimicrobial activity against Pseudomonas aeruginosa MTCC 1688 at 1000 ug/ml after 24 hrs by cup plate method; conditions: MTCC 1688, 24 h, read-out: IZ
Aspergillus oryzae [25] = assay: Antimicrobial activity against Aspergillus oryzae MTCC 3567 at 1000 ug/ml after 72 hrs by cup plate method; conditions: MTCC 3567, 72 h, read-out: IZ
Pseudomonas aeruginosa [26] = assay: Antimicrobial activity against Pseudomonas aeruginosa MTCC 1688 at 750 ug/ml after 24 hrs by cup plate method; conditions: MTCC 1688, 24 h, read-out: IZ
[27] = Antioxidant activity assessed as ferric ion reducing activity at 100 ug/ml by FRAP assay

SMILES | zone of inhibition at 500 µg/mL (Escherichia coli [2]) | zone of inhibition at 1000 µg/mL (Aspergillus flavus [3]) | zone of inhibition at 750 µg/mL (Aspergillus flavus [4]) | zone of inhibition at 500 µg/mL (Staphylococcus aureus [5]) | zone of inhibition at 750 µg/mL (Aspergillus oryzae [7]) | Activity [8] | zone of inhibition at 750 µg/mL (Aspergillus niger [9]) | zone of inhibition at 500 µg/mL (Aspergillus oryzae [10]) | zone of inhibition at 500 µg/mL (Aspergillus niger [11]) | zone of inhibition at 1000 µg/mL (Staphylococcus aureus [12]) | zone of inhibition at 750 µg/mL (Escherichia coli [13]) | zone of inhibition at 1000 µg/mL (Escherichia coli [14]) | zone of inhibition at 1000 µg/mL (Klebsiella pneumoniae [17]) | zone of inhibition at 750 µg/mL (Klebsiella pneumoniae [18]) | zone of inhibition at 500 µg/mL (Klebsiella pneumoniae [19]) | zone of inhibition at 500 µg/mL (Pseudomonas aeruginosa [20]) | zone of inhibition at 750 µg/mL (Staphylococcus aureus [21]) | zone of inhibition at 500 µg/mL (Aspergillus flavus [22]) | zone of inhibition at 1000 µg/mL (Pseudomonas aeruginosa [24]) | zone of inhibition at 1000 µg/mL (Aspergillus oryzae [25]) | other results
Cc1ccc2[nH]c(-c3ccccc3)c(C3C=C(c4ccc(Cl)cc4)Oc4[nH]nc(N)c43)c2c1 (configuration not stated) | 9 mm | 2 mm | 5 mm | 2 mm | 7 mm | Active | 3 mm | 8 mm | 5 mm | 0 mm | 8 mm | 8 mm | 12 mm | 12 mm | 12 mm | 6 mm | 0 mm | 5 mm | 5 mm | 7 mm | zone of inhibition at 1000 µg/mL (Aspergillus niger [1]): 2 mm; Activity [6]: Active; zone of inhibition at 750 µg/mL (Aspergillus terreus [15]): 10 mm; zone of inhibition at 1000 µg/mL (Aspergillus terreus [16]): 10 mm; zone of inhibition at 500 µg/mL (Aspergillus terreus [23]): 10 mm; zone of inhibition at 750 µg/mL (Pseudomonas aeruginosa [26]): 6 mm
N#CC1=C(N)OC(c2ccccc2)=CC1c1c(-c2ccccc2)[nH]c2ccccc12 (configuration not stated) | 10 mm | 10 mm | 10 mm | 10 mm | 9 mm | Active | 5 mm | 9 mm | 6 mm | 10 mm | 8 mm | 8 mm | 13 mm | 13 mm | 13 mm | 9 mm | 10 mm | 10 mm | 9 mm | 5 mm | zone of inhibition at 1000 µg/mL (Aspergillus niger [1]): 10 mm; Activity [6]: Active; zone of inhibition at 750 µg/mL (Aspergillus terreus [15]): 5 mm; zone of inhibition at 1000 µg/mL (Aspergillus terreus [16]): 3 mm; zone of inhibition at 500 µg/mL (Aspergillus terreus [23]): 9 mm; zone of inhibition at 750 µg/mL (Pseudomonas aeruginosa [26]): 9 mm
Cc1ccc(C2=CC(c3c(-c4ccccc4)[nH]c4ccc(C)cc34)c3c(N)n[nH]c3O2)cc1 (configuration not stated) | 8 mm | 3 mm | 4 mm | 7 mm | 9 mm | Active | 9 mm | 10 mm | 9 mm | 5 mm | 9 mm | 10 mm | 10 mm | 10 mm | 11 mm | 8 mm | 5 mm | 4 mm | 4 mm | 9 mm | Activity [6]: Active; zone of inhibition at 750 µg/mL (Aspergillus terreus [15]): 0 mm; zone of inhibition at 1000 µg/mL (Aspergillus terreus [16]): 0 mm; zone of inhibition at 500 µg/mL (Aspergillus terreus [23]): 0 mm; zone of inhibition at 750 µg/mL (Pseudomonas aeruginosa [26]): 4 mm
Cc1ccc(C2=CC(c3c(-c4ccccc4)[nH]c4ccccc34)C(C#N)=C(N)O2)cc1 (configuration not stated) | 10 mm | 10 mm | 9 mm | 0 mm | 9 mm | Active | 8 mm | 5 mm | 8 mm | 0 mm | 10 mm | 10 mm | 5 mm | 6 mm | 8 mm | 9 mm | 0 mm | 8 mm | 6 mm | 8 mm | zone of inhibition at 1000 µg/mL (Aspergillus niger [1]): 8 mm; zone of inhibition at 750 µg/mL (Aspergillus terreus [15]): 6 mm; zone of inhibition at 1000 µg/mL (Aspergillus terreus [16]): 5 mm; Activity [27]: Active; zone of inhibition at 500 µg/mL (Aspergillus terreus [23]): 8 mm; zone of inhibition at 750 µg/mL (Pseudomonas aeruginosa [26]): 8 mm
N#CC1=C(N)OC(c2ccc(Cl)cc2)=CC1c1c(-c2ccccc2)[nH]c2ccc(Cl)cc12 (configuration not stated) | 13 mm | 13 mm | 12 mm | 13 mm | 10 mm | Active | 10 mm | 10 mm | 10 mm | 13 mm | 13 mm | 14 mm | 10 mm | 10 mm | 10 mm | 10 mm | 13 mm | 12 mm | 10 mm | 9 mm | zone of inhibition at 1000 µg/mL (Aspergillus niger [1]): 10 mm; Activity [6]: Active; zone of inhibition at 750 µg/mL (Pseudomonas aeruginosa [26]): 10 mm
Cc1ccc(C2=CC(c3c(-c4ccccc4)[nH]c4ccccc34)c3c(N)nc(=O)[nH]c3O2)cc1 (configuration not stated) | 7 mm | 3 mm | 3 mm | 5 mm | 10 mm | Active | 3 mm | 10 mm | 5 mm | 5 mm | 7 mm | 8 mm | 3 mm | 4 mm | 6 mm | 5 mm | 3 mm | 3 mm | 3 mm | 10 mm | zone of inhibition at 1000 µg/mL (Aspergillus niger [1]): 2 mm; Activity [6]: Active; zone of inhibition at 750 µg/mL (Aspergillus terreus [15]): 3 mm; zone of inhibition at 1000 µg/mL (Aspergillus terreus [16]): 3 mm; zone of inhibition at 500 µg/mL (Aspergillus terreus [23]): 3 mm; zone of inhibition at 750 µg/mL (Pseudomonas aeruginosa [26]): 3 mm
